# Experimental data taken from paper PMC10877733, “Discovery and Characterization of VU0542270, the First Selective Inhibitor of Vascular Kir6.1/SUR2B KATP Channels” (Molecular Pharmacology, 2024).
# Experiments:
# Kir3.1/Kir3.2 = target: T1, Kir3.1/Kir3.2 (Homo sapiens, UniProt P48051+P48549); test: Thallium flux selectivity assay Kir3.1/Kir3.2; assay type: cell-based
# T1 construct: expressed in transfected cells
# T1 sequence (P48549 1-501): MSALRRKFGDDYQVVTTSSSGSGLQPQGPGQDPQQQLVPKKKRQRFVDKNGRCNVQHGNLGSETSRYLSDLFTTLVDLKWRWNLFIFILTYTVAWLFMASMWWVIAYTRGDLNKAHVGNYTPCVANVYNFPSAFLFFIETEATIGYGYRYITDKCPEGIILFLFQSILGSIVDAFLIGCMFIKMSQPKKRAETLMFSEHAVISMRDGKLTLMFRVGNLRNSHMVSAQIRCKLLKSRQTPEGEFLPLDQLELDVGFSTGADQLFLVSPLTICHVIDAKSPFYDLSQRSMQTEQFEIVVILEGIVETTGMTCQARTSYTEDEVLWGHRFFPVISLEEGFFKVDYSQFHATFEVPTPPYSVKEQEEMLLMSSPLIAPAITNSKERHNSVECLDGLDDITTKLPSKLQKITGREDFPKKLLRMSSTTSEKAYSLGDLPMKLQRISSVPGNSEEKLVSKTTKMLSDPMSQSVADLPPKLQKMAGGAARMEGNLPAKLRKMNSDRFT
# T1 sequence (P48051 1-423): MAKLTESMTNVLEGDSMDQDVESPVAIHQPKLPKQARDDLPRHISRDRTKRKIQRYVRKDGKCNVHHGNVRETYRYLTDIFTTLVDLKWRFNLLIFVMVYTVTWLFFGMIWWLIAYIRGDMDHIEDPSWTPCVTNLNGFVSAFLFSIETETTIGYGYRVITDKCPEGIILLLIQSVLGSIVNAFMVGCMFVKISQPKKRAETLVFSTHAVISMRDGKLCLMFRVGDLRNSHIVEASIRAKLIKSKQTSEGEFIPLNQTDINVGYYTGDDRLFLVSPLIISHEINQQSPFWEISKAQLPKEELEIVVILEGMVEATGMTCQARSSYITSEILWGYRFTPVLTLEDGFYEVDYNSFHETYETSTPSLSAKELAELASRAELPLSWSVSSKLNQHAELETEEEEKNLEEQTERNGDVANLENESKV
# Method: Quantitative thallium flux assays of Kir6.1/SUR2B activity were performed essentially as described previously for Kir6.2/SUR1 ([Raphemot et al., 2014]; [Kharade et al., 2019]). Stable T-Rex-HEK293-Kir6.1/SUR2B cells or transiently transfected HEK293T cells were plated in polyamine-coated, clear-bottomed, black-walled 384-well plates and were cultured (37°C/5% CO2) overnight in Dulbecco’s modified Eagle’s medium (Gibco, Carlsbad, CA, 11995-065) containing 10% FBS (2 mM Penicillin-Streptomycin). The following day, cells were washed with assay buffer (i.e., Hanks’ balanced salt solution/20 mM HEPES) and loaded for 1 hour with thallium sensor dye Brilliant Thallium (Ion Bioscience, San Marcos, TX) at room temperature. Dye-loaded cells were washed with assay buffer and transferred to a Panoptic Kinetic Imaging Plate Reader (Wavefront Bioscience, Franklin, TN). Control and test compound treatments were for 4 minutes prior to adding 0.5 mM chloride-free thallium stimulus buffer (Ion Bioscience) to initiate thallium flux. […] Selectivity assays against other Kir channels were performed essentially as described previously ([Kharade et al., 2018]; [McClenahan et al., 2022]).
# [1] = test system: Kir6.1- or Kir6.2-containing channels in complex with either SUR2A or SUR2B; test: Thallium flux, Kir6.1 or Kir6.2 co-expressed with SUR2A or SUR2B in transfected HEK-293 cells; assay type: cell-based; details: 3 µM, Fig. 4D
# Excerpt: The pcDNA3.1-SUR2B plasmid was generously provided by Dr. Colin Nichols (Washington University). The pcDNA5/TO-Kir6.1 plasmid was synthesized by GenScript. Stably transfected tetracycline-regulated expression human embryonic kidney-293 (T-Rex-HEK293) cells expressing both plasmids were generated by cotransfecting cells with Lipofectamine LTX followed by antibiotic selection and clonal selection using the thallium flux assay described below. Monoclonal lines expressing robust pinacidil-activated thallium flux were selected for high KATP channel activity. T-Rex-HEK293 cells expressing Kir6.2/SUR1 were created as described previously ([Raphemot et al., 2014]). The cell culture media contained Dulbecco’s modified Eagle’s medium (Gibco, 11965-092) supplied with heat-inactivated FBS (bio-techne, Minneapolis, MN S11150H,10%), Blasticidine HCl (Gibco, A11139-03, 10 ug/mL), Penicillin-Streptomycin (Gibco, 15140-122, 2 mM), G418 Sulfate (CORNING, Corning, NY, 30-234-CR, 1 mg/mL), and Hygromycin B (Invitrogen, Carlsbad, CA, 10687-010, 250 ug/mL). […]
# Quantitative thallium flux assays of Kir6.1/SUR2B activity were performed essentially as described previously for Kir6.2/SUR1 ([Raphemot et al., 2014]; [Kharade et al., 2019]). […] Dye-loaded cells were washed with assay buffer and transferred to a Panoptic Kinetic Imaging Plate Reader (Wavefront Bioscience, Franklin, TN). […]
# [2] = Plasma binding by equilibrium dialysis, human; assay type: in vitro ADME; details: equilibrium dialysis 6 hours 37°C, read-out: Fu, plasma (human)
# Method: Determination of VU0542270 fraction unbound (fu) in plasma from mouse, rat, and human was conducted in vitro via equilibrium dialysis using high-throughput dialysis (HTD) membrane plates. Dialysis membranes (four paired strips per HTD assay) were hydrated as described by the manufacturer and inserted into the HTD plate, which was assembled and prepared for sample addition by the dispensing of blank buffer [Delbecco’s phosphate buffered saline (DPBS), 100 µL/well] into the “top half” of each membrane-split well. VU0542270 was diluted into plasma from each species (5 µM final concentration), which was aliquoted in triplicate to the “bottom half” of the prepared HTD plate wells. The HTD plate was sealed and incubated for 6 hours at 37°C. Following incubation, each well (both top and bottom halves) was transferred (20 µL) to the corresponding well of a 96-shallow-well (V-bottom) plate. […]
# fu was calculated as (analyte to IS mass spectrometry (MS) peak area ratio from Trans-buffer side)/(analyte to IS MS peak area ratio from Cis-plasma side). Mean values for each species were calculated from three replicates.
compound,measurement,setting,value
Cc1nc(-c2cccs2)sc1CNC(=O)Nc1cccs1 [VU0542270],IC50,Kir3.1/Kir3.2,> 30 µM
same,inhibition of Kir6.1- or Kir6.2-containing channels with SUR2A or SUR2B,[1],inhibits
same,"fraction unbound at 6 h, 5 µM",[2],0.01
